From ChEMBL document CHEMBL3091312, “Characterization and anti-inflammatory effects of iodinated acetylenic acids isolated from the marine sponges Suberites mammilaris and Suberites japonicus” (J Nat Prod, 2013) come the findings set out here.

Format in all cases: functional, cell-based
A short description of experiment [1]: Antiinflammatory activity against mouse BV2 cells assessed as inhibition of LPS-induced NO production preincubated for 1 hr followed by LPS addition measured after 24 hrs by Griess method. The following applies: BV-2.
Experiment [2] relates to RAW264.7. Briefly: Antiinflammatory activity against mouse RAW264.7 cells assessed as inhibition of LPS-induced NO production preincubated for 1 hr followed by LPS addition measured after 24 hrs by Griess method.
The test system of experiment [3] is RAW264.7. Briefly: Antiinflammatory activity against mouse RAW264.7 cells assessed as inhibition of LPS-induced PGE2 production at 5 to 10 uM preincubated for 1 hr followed by LPS addition measured after 24 hrs by ELISA.
Experiment [4] has as its system RAW264.7. The experiment is described as follows: Antiinflammatory activity against mouse RAW264.7 cells assessed as effect on PGE2 level at 5 to 10 uM after 24 hrs by ELISA relative to control.
In experiment [5] the test system is BV-2. Briefly: Antiinflammatory activity against mouse BV2 cells assessed as effect on PGE2 level at 5 to 10 uM after 24 hrs by ELISA relative to control.
Experiment [6] concerns BV-2. The experiment is described as follows: Antiinflammatory activity against mouse BV2 cells assessed as inhibition of LPS-induced PGE2 production at 5 to 10 uM preincubated for 1 hr followed by LPS addition measured after 24 hrs by ELISA.

Activity calls are given as the source filed them. The calls are words filed in the database; no cut-off is given here.

Regarding `C/C=C/CC/C(I)=C\CC#CC/C=C\C/C(I)=C\CCCC(=O)OC`, the IC50 was 18 µM in experiment [1] and 7 µM in the experiment on RAW264.7 [2]. The inhibition result in the experiment on RAW264.7 [3] is “Active”. Moreover, the result in the experiment with RAW264.7 [4] and in the experiment on BV-2 [5] was inactive.

In the case of `C=C/C=C/C/C(I)=C\CC#CC/C=C\C/C(I)=C\CCCC(=O)OC`, the figures for the IC50 (in experiment [1]; in the experiment with RAW264.7 [2]) were 23.3 µM and 3.9 µM, respectively. Besides, in the experiment with RAW264.7 [3], the inhibition entry was “Active”. Moreover, the result in the experiment on RAW264.7 [4] and in the experiment with BV-2 [5] was inactive.

As for `C=CCCC/C=C\CC#CC/C=C\C/C(I)=C\CCCC(=O)OC`, the half-inhibitory concentration (IC50) turned out to be 3.1 µM in experiment [1] and 53.6 µM in the experiment on RAW264.7 [2]. Moreover, the inhibition result with BV-2 [6] was “Active”. Moreover, the result in the experiment with RAW264.7 [4] and with BV-2 [5] was inactive.

With `CCCCC/C=C\CC#CC/C=C\C/C(I)=C\CCCC(=O)OC`, the IC50 in experiment [1] came out at 1.8 µM. Also, the inhibition result in the experiment on RAW264.7 [2] is “inactive”. The inhibition entry in the experiment on BV-2 [6] is “Active”. The outcome in the experiment on RAW264.7 [4] and with BV-2 [5] was inactive.
